Data set [1] deals with Botryotinia fuckeliana (Botrytis cinerea). Kind of data set: Botryotinia fuckeliana (Botrytis cinerea) / liquid culture (gray mould). It is filed as cell-based. The following applies: 72 h, read-out: control of Botryotinia fuckeliana.
Data set [2] deals with Monographella nivalis (Microdochium nivale). In words: Monographella nivalis (Microdochium nivale) / liquid culture (foot rot cereals). Type of data set: cell-based. The following applies: 96 h, read-out: control of Monographella nivalis.
Data set [3] concerns Fusarium culmorum. In words: microbe, parasite or virus in culture. It is filed as cell-based. The following applies: read-out: control of Fusarium culmorum.
For data set [4], the system named is Fusarium culmorum. Kind of data set: whole plant or invertebrate. It is filed as in vivo. To be noted: in Triticum aestivum, read-out: control of Fusarium culmorum.
Data set [5] deals with Glomerella lagenarium (Colletotrichum lagenarium). Kind of data set: Glomerella lagenarium (Colletotrichum lagenarium) / liquid culture (anthracnose). To be noted: Colletotrichum orbiculare; read-out: control of Glomerella lagenarium. It is filed as cell-based.

On to `C/C=C/C(C)(Cc1ccccc1)NC(=O)c1cnc2ccccc2c1` (stereo not drawn) [Compound E-88, N-[(E)-1-benzyl-1-methyl-but-2-enyl]quinoline-3-carboxamide], for which the inhibition of growth at 200 ppm (in data set [1]; in data set [2]; in the data set with Fusarium culmorum [3]) was at least 80% throughout. Also, the pest or weed control at 200 ppm with Fusarium culmorum [4] was at least 80%.

Take `Cc1c(C(=O)NC(C)(Cc2ccccc2)CC(F)(F)F)cnc2c(F)cccc12` (stereo not drawn) [Compound E-90, N-(1-benzyl-3,3,3-trifluoro-1-methyl-propyl)-8-fluoro-4-methyl-quinoline-3-carboxamide]: the melting point (as a rule, the temperature of the solid-liquid transition) was in the range of 154 to 158 °C. In addition, in data set [1], the inhibition of growth at 200 ppm is at least 80%. Besides, the inhibition of growth at 200 ppm in data set [5] is at least 80%. Besides, the inhibition of growth at 200 ppm with Fusarium culmorum [3] was at least 80%. Further, the pest or weed control at 200 ppm in the data set with Fusarium culmorum [4] was at least 80%.

For `C=CCC(Cc1ccccc1)(NC(=O)c1cnc2c(F)cccc2c1)C(F)(F)F` (stereo not drawn) [Compound E-92, N-[1-benzyl-1-(trifluoromethyl)but-3-enyl]-8-fluoro-quinoline-3-carboxamide], the inhibition of growth at 200 ppm (in data set [1]; in data set [5]; in data set [2]; in the data set with Fusarium culmorum [3]) was at least 80% each time. In the data set on Fusarium culmorum [4], the pest or weed control at 200 ppm was at least 80%.

As for `CC(Cc1ccccc1)(CC(F)(F)F)NC(=O)c1cnc2c(Cl)c(F)ccc2c1` (stereo not drawn) [Compound E-93, N-(1-benzyl-3,3,3-trifluoro-1-methyl-propyl)-8-chloro-7-fluoro-quinoline-3-carboxamide], the melting point is 150 to 152 °C. Also, the inhibition of growth at 200 ppm in data set [1] was at least 80%. The inhibition of growth at 200 ppm in data set [5] was at least 80%. Also, the inhibition of growth at 200 ppm with Fusarium culmorum [3] was at least 80%. In the data set with Fusarium culmorum [4], the pest or weed control at 200 ppm was at least 80%.

`CC(C=C(F)F)(Cc1ccccc1)NC(=O)c1cnc2c(F)cccc2c1` (stereo not drawn) [Compound E-94, N-(1-benzyl-3,3-difluoro-1-methyl-allyl)-8-fluoro-quinoline-3-carboxamide]: the melting point fell in the range of 99 to 101 °C. The inhibition of growth at 200 ppm in data set [1] was at least 80%. The inhibition of growth at 200 ppm in data set [5] is at least 80%. Further, the inhibition of growth at 200 ppm in the data set with Fusarium culmorum [3] was at least 80%. Further, the pest or weed control at 200 ppm in the data set with Fusarium culmorum [4] was at least 80%.

With `CC(Cc1ccccc1)(CC(F)(F)Cl)NC(=O)c1cnc2c(F)cccc2c1` (stereo not drawn) [Compound E-97, N-(1-benzyl-3-chloro-3,3-difluoro-1-methyl-propyl)-8-fluoro-quinoline-3-carboxamide], the inhibition of growth at 200 ppm (in data set [1]; in data set [5]; in data set [2]; in the data set with Fusarium culmorum [3]) was at least 80% each time. In addition, the pest or weed control at 200 ppm in the data set with Fusarium culmorum [4] was at least 80%.

Molecule `CC(Cc1ccccc1F)(CC(F)(F)F)NC(=O)c1cnc2c(F)cccc2c1` (stereo not drawn) [Compound E-98, 8-fluoro-N-[3,3,3-trifluoro-1-[(2-fluorophenyl)methyl]-1-methyl-propyl]quinoline-3-carboxamide] showed a melting point of 131 to 133 °C. Also, in data set [1], the inhibition of growth at 200 ppm was at least 80%. Further, the inhibition of growth at 200 ppm in data set [5] is at least 80%. The inhibition of growth at 200 ppm in the data set on Fusarium culmorum [3] is at least 80%. Also, in the data set on Fusarium culmorum [4], the pest or weed control at 200 ppm was at least 80%.

Molecule `Cc1c(F)ccc2cc(C(=O)NC(C)(Cc3ccccc3)CC(F)(F)F)cnc12` (stereo not drawn) [Compound E-100, N-(1-benzyl-3,3,3-trifluoro-1-methyl-propyl)-7-fluoro-8-methyl-quinoline-3-carboxamide] showed a melting point of 127 to 129 °C. For the same molecule, in data set [1], the inhibition of growth at 200 ppm was at least 80%. Further, in data set [5], the inhibition of growth at 200 ppm is at least 80%. Besides, the inhibition of growth at 200 ppm in the data set with Fusarium culmorum [3] is at least 80%. Moreover, in the data set with Fusarium culmorum [4], the pest or weed control at 200 ppm was at least 80%.

For `CCC(Cc1ccccc1)(CC(F)(F)F)NC(=O)c1cnc2c(F)cccc2c1` (stereo not drawn) [Compound E-101, N-(1-benzyl-1-ethyl-3,3,3-trifluoro-propyl)-8-fluoro-quinoline-3-carboxamide], the melting point lay in the range of 127 to 129 °C. Besides, in data set [1], the inhibition of growth at 200 ppm was at least 80%. In addition, in data set [5], the inhibition of growth at 200 ppm was at least 80%. Further, the inhibition of growth at 200 ppm in the data set on Fusarium culmorum [3] was at least 80%. In addition, the pest or weed control at 200 ppm with Fusarium culmorum [4] was at least 80%.

Consider `CC(Cc1ccccc1)(CC(F)(F)F)NC(=O)c1cnc2c(F)c(F)ccc2c1` (stereo not drawn) [Compound E-102, N-(1-benzyl-3,3,3-trifluoro-1-methyl-propyl)-7,8-difluoro-quinoline-3-carboxamide], for which the melting point fell in the range of 158 to 160 °C. Also, in data set [1], the inhibition of growth at 200 ppm was at least 80%. Further, the inhibition of growth at 200 ppm in data set [5] was at least 80%. Further, the inhibition of growth at 200 ppm in the data set on Fusarium culmorum [3] is at least 80%. For the same molecule, the pest or weed control at 200 ppm with Fusarium culmorum [4] was at least 80%.

As for `Cc1c(C(=O)NC(C)(Cc2ccccc2)CC(F)(F)F)cnc2c(Cl)cccc12` (stereo not drawn) [Compound E-104, N-(1-benzyl-3,3,3-trifluoro-1-methyl-propyl)-8-chloro-4-methyl-quinoline-3-carboxamide], the melting point lay in the range of 184 to 186 °C. Also, the inhibition of growth at 200 ppm in data set [1] was at least 80%. Also, the inhibition of growth at 200 ppm in data set [5] is at least 80%. Also, the inhibition of growth at 200 ppm with Fusarium culmorum [3] was at least 80%. The pest or weed control at 200 ppm with Fusarium culmorum [4] is at least 80%.

The molecule `CC(C)CC(C)(Cc1ccccc1)NC(=O)c1cc2cccc(F)c2nc1Cl` (stereo not drawn) [Compound E-106, N-(1-benzyl-1,3-dimethyl-butyl)-2-chloro-8-fluoro-quinoline-3-carboxamide] displayed a melting point of 106 to 108 °C. For the same molecule, the inhibition of growth at 200 ppm in data set [1] is at least 80%. Further, the inhibition of growth at 200 ppm in data set [5] was at least 80%. The inhibition of growth at 200 ppm with Fusarium culmorum [3] was at least 80%. Also, the pest or weed control at 200 ppm in the data set with Fusarium culmorum [4] is at least 80%.

In the case of `Cc1nc2c(C#N)cccc2cc1C(=O)NC(C)(Cc1ccccc1)CC(F)(F)F` (stereo not drawn) [Compound E-113, N-(1-benzyl-3,3,3-trifluoro-1-methyl-propyl)-8-cyano-2-methyl-quinoline-3-carboxamide], the melting point was 136 to 140 °C. Also, the inhibition of growth at 200 ppm in data set [1] was at least 80%. For the same molecule, in data set [5], the inhibition of growth at 200 ppm was at least 80%. Besides, the inhibition of growth at 200 ppm in the data set with Fusarium culmorum [3] is at least 80%. Moreover, the pest or weed control at 200 ppm with Fusarium culmorum [4] was at least 80%.

Consider `CCOC(OCC)C(C)(Cc1ccccc1)NC(=O)c1cnc2c(F)cccc2c1` (stereo not drawn) [Compound E-116, N-(1-benzyl-2,2-diethoxy-1-methyl-ethyl)-8-fluoro-quinoline-3-carboxamide], for which the inhibition of growth at 200 ppm (in data set [1]; in data set [2]; in the data set on Fusarium culmorum [3]) was at least 80% in each case.

Turning to `CON=CC(C)(Cc1ccccc1)NC(=O)c1cnc2c(F)cccc2c1` (stereo not drawn) [Compound E-117, N-(1-benzyl-2-methoxyimino-1-methyl-ethyl)-8-fluoro-quinoline-3-carboxamide], the inhibition of growth at 200 ppm (in data set [1]; in data set [2]; in the data set with Fusarium culmorum [3]) was at least 80% in each case.

As to `COCCC(C)(Cc1ccccc1)NC(=O)c1cnc2c(F)cccc2c1` (stereo not drawn) [Compound E-121, N-(1-benzyl-3-methoxy-1-methyl-propyl)-8-fluoro-quinoline-3-carboxamide], the inhibition of growth at 200 ppm (in data set [1]; in data set [2]; in the data set on Fusarium culmorum [3]) was at least 80% in each case.

On to `C=C(C)C[C@@](C)(Cc1ccccc1)NC(=O)c1cnc2c(F)cccc2c1` [Compound F-9, N-[(1S)-1-benzyl-1,3-dimethyl-but-3-enyl]-8-fluoro-quinoline-3-carboxamide], for which the inhibition of growth at 200 ppm (in data set [1]; in data set [5]; in data set [2]; in the data set on Fusarium culmorum [3]) was at least 80% throughout. In the data set on Fusarium culmorum [4], the pest or weed control at 200 ppm was at least 80%.

For the molecule `C=C(C)C[C@](C)(Cc1ccccc1)NC(=O)c1cnc2c(F)c(F)ccc2c1` [Compound F-20, N-[(1R)-1-benzyl-1,3-dimethyl-but-3-enyl]-7,8-difluoro-quinoline-3-carboxamide], the inhibition of growth at 200 ppm (in data set [1]; in data set [5]; in data set [2]; with Fusarium culmorum [3]) was at least 80% throughout. For the same molecule, the pest or weed control at 200 ppm in the data set with Fusarium culmorum [4] was at least 80%.

As for `CC(C)(F)C[C@@](C)(Cc1ccccc1)NC(=O)c1cnc2c(F)cccc2c1` [Compound F-23, N-[(1R)-1-benzyl-3-fluoro-1,3-dimethyl-butyl]-8-fluoro-quinoline-3-carboxamide], the inhibition of growth at 200 ppm (in data set [1]; in data set [5]; in data set [2]; in the data set on Fusarium culmorum [3]) was at least 80% each time. For the same molecule, the pest or weed control at 200 ppm in the data set with Fusarium culmorum [4] is at least 80%.

Turning to `CC(F)(F)C[C@](C)(Cc1ccccc1)NC(=O)c1cnc2ccccc2c1` [Compound F-25, N-[(1S)-1-benzyl-3,3-difluoro-1-methyl-butyl]quinoline-3-carboxamide], the inhibition of growth at 200 ppm (in data set [1]; in data set [5]; in data set [2]; with Fusarium culmorum [3]) was at least 80% throughout. The pest or weed control at 200 ppm in the data set with Fusarium culmorum [4] was at least 80%.

With `Cc1cccc2cc(C(=O)N[C@@](C)(Cc3ccccc3)CC(F)(F)F)cnc12` [Compound F-27, N-[(1S)-1-benzyl-3,3,3-trifluoro-1-methyl-propyl]-8-methyl-quinoline-3-carboxamide], the inhibition of growth at 200 ppm (in data set [1]; in data set [5]; in data set [2]; with Fusarium culmorum [3]) was at least 80% in each case. For the same molecule, the pest or weed control at 200 ppm with Fusarium culmorum [4] was at least 80%.

In the case of `Cc1c(C(=O)N[C@](C)(Cc2ccccc2)CC(F)(F)F)cnc2c(F)cccc12` [Compound F-30, N-[(1R)-1-benzyl-3,3,3-trifluoro-1-methyl-propyl]-8-fluoro-4-methyl-quinoline-3-carboxamide], the inhibition of growth at 200 ppm (in data set [1]; in data set [5]; in data set [2]; with Fusarium culmorum [3]) was at least 80% in each case.

The record behind these values is patent publication US10477864B2, “Microbiocidal quinoline (thio)carboxamide derivatives” (priority 2016, dated 2019).
